Source: patent US20120190751A1, “COMPOUNDS FOR TREATMENTS OF INFLAMMATION” (ANA-MAR AB, priority 2009, published 2012)

Tests used:
5-HT6 receptor = 5-HT6 receptor (Homo sapiens, UniProt P50406); experiment: Radio-ligand binding assay 5-HT6; settings: 10 μM compound; [3H] LSD 1.5 nM; human rec. HEK293 cells
Description: (§1) Determination of binding affinities for various 5-HT receptors was performed by radio-ligand binding assays. Briefly, tissue or cells expressing the receptor of interest were suspended in incubation buffer and radio-ligands and 10 μM N-(2-chloro-3,4-dimethoxybenzylidene-amino)guanidine were added. After incubation, separation of bound and free radio-ligand was done by multiple washings with buffer.
(§2) The results were presented as the percent inhibition of specific binding. The IC50 values were determined by a non-linear least square regression analysis using MathIQ™ (ID Business Solution Ltd., UK). The inhibition constants (Ki) were calculated using the equation of Cheng and Prusoff (Cheng Y, Prusoff W H, Biochem. Pharmacol. 22:3099-3108, 1973) using the observed IC50 of the tested compound, the concentration of radioligand employed in the assay and the historical values for the KD of the ligand.

5-HT4 receptor = molecular target: T1, 5-HT4 receptor (Cavia porcellus, UniProt O70528); experiment: Radio-ligand binding assay 5-HT4; design: species or system Guinea pig
T1 construct: tissue or cells expressing the receptor of interest were suspended in incubation buffer; from tissue; host or cells: guinea-pig tissue (which tissue is not visible)
Description: as §1, §2

5-HT3 receptor = molecular target: T2, 5-HT3 receptor (Homo sapiens, UniProt P46098); experiment: Radio-ligand binding assay 5-HT3; settings: 10 μM compound; [3H] GR65630 35 nM; human rec. HEK293 cells
T2 sequence (P46098 24-478): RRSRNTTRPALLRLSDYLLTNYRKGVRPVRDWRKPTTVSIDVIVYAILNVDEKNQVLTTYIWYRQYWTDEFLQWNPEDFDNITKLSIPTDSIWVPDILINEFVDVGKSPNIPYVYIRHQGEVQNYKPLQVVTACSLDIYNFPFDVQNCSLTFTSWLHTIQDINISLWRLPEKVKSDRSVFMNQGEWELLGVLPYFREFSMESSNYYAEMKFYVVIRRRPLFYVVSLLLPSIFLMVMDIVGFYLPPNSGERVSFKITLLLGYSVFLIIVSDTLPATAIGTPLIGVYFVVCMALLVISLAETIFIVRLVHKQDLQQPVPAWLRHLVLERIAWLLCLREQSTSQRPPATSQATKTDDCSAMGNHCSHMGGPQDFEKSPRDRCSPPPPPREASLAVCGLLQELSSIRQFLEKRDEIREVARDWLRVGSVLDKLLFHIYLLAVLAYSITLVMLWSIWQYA
Description: as §1, §2

5HT2B receptor = 5HT2B receptor (Homo sapiens, UniProt P41595); experiment: Radio-ligand binding assay 5-HT2B
Description: as §1, §2

[1] = 10 different concentrations, Cheng-Prusoff, FIG. 1

5HT2B receptor, sequence (P41595 whole entry): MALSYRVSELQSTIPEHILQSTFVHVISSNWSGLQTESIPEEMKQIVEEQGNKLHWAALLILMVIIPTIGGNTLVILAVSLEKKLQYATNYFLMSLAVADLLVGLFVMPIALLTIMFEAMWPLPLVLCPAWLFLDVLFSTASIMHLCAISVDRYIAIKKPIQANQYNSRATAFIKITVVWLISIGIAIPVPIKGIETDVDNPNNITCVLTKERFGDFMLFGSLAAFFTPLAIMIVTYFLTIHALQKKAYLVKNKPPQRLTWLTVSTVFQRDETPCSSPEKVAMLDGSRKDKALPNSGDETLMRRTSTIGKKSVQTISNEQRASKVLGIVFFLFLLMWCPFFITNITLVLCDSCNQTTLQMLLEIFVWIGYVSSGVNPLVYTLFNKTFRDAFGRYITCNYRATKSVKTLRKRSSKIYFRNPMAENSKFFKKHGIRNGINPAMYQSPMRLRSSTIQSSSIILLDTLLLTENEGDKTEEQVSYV
T1 sequence (O70528 whole entry): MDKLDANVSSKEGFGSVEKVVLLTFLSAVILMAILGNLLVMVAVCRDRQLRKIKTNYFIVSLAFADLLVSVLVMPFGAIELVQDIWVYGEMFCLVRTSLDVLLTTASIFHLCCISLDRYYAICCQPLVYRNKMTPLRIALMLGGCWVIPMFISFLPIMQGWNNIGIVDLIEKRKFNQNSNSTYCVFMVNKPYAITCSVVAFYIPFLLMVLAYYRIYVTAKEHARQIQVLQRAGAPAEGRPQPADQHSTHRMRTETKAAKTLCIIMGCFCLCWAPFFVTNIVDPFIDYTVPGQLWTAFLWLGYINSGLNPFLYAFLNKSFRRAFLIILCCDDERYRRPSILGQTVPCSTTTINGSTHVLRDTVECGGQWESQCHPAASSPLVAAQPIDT
5-HT6 receptor, sequence (P50406 whole entry): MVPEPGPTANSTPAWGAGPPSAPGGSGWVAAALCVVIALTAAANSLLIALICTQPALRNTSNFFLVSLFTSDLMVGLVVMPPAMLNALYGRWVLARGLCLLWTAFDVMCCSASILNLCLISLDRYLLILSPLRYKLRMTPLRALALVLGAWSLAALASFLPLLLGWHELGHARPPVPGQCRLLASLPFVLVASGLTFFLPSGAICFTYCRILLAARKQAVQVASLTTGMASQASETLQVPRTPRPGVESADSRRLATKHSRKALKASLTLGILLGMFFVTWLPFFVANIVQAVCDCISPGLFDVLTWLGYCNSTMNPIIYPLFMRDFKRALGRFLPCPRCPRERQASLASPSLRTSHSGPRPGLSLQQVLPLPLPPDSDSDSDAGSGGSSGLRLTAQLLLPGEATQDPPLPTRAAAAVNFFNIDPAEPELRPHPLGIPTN

SMILES: COc1ccc(C=NNC(=N)N)c(Cl)c1OC [N-(2-chloro-3,4-dimethoxybenzylideneamino)guanidine]
- inhibition at 10 µM (5-HT6 receptor): 2.6%
- inhibition at 10 µM (5-HT4 receptor; 10 μM compound, [3H] GR113808 0.2 nM, guinea pig striata): 99%
- Ki (5-HT4 receptor; [1]): 276 nM
- inhibition at 10 µM (5-HT3 receptor): 3.3%
- inhibition at 10 µM (5HT2B receptor; 10 μM compound, [3H] LSD 1.2 nM, human rec. CHO.K1 cells): 107%
- Ki (5HT2B receptor; [1]): 263 nM
